Assay: Dissolution of phenothiazine fixed bed in acetic acid (UV absorption at 390 nm)
Type: physicochemical
Details: saturation concentration
Source text: The dissolution of phenothiazine in acetic acid according to the process according to the invention was investigated by experiment. FIG. 2 illustrates the relevant experimental setup.
A phenothiazine fixed bed is placed in a temperature-controllable chromatography column (Götec-Labor GmbH, Superformance 300-16, length 300 mm, internal diameter 16 mm, double-walled for thermostatting, 20 μm type F filter frit). Pump P-01 conveys acetic acid from the reservoir vessel through the fixed bed temperature-controlled to 20° C. into a waste vessel. Pump P-02 diverts a sample stream to the UV detector. The phenothiazine concentration is determined by absorption measurement at 390 nm. The detector is previously calibrated with a phenothiazine solution of known concentration.
A first experiment was performed with a flow rate of 12.4 cm/min at a volume flow of 25.0 ml/min. […] The measured detector extinction (dashed) periodically deviates from the concentration at the bed outlet since to protect the measuring cell from solids particles the solution was not passed through the detector upon startup. In the further course of the experiment calibration solutions were passed through the detector as a control. The “corrected bed outlet concentration” (solid curve beginning at a concentration of 0.000) was calculated over the experimental duration via linear interpolation and extrapolation. […]

c1ccc2c(c1)Nc1ccccc1S2 [phenothiazine]
Max conc (phenothiazine) (Experiment 1, fixed bed thermostatted 20.0 °C, flow rate 12.4 cm/min, volume flow 25.0 ml/min): 1.23 % by wt.
Max conc (phenothiazine) (Experiment 2, fixed bed thermostatted 20.0 °C, flow rate 11.0 cm/min, volume flow 22.2 ml/min): 1.22 % by wt.
